Laboratory results from PubChem BioAssay (NCI).
Where “and” joins values, the source holds several entries; their conditions need not be identical. Equal values may be shown once.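 Values below derive from 48-hour exposures of cells grown in 96-well plates, with endpoints linearly interpolated between the two concentrations bracketing the appropriate inhibition level. GI50: concentration for 50% inhibition of growth. TGI: concentration producing complete growth inhibition.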

What was measured:
Experiment in all cases: NCI-60 cell line screen, 48 h
HCC-2998 colon = tested on: HCC-2998 colon
HCT-116 colon = tested on: HCT-116 colon
HOP-62 NSCLC = tested on: HOP-62 NSCLC
K-562 leukemia = tested on: K-562 leukemia
MCF7 breast = tested on: MCF7 breast
NCI-H522 lung = tested on: NCI-H522 lung
NCI/ADR-RES ovarian = tested on: NCI/ADR-RES ovarian
OVCAR-5 ovarian = tested on: OVCAR-5 ovarian
OVCAR-8 ovarian = tested on: OVCAR-8 ovarian
U251 CNS = tested on: U251 CNS

Row | SMILES | GI50 (HCC-2998 colon) [nM] | TGI (HCC-2998 colon) | GI50 (HCT-116 colon) [nM] | TGI (HCT-116 colon) [µM] | GI50 (HOP-62 NSCLC) [nM] | TGI (HOP-62 NSCLC) [µM] | GI50 (K-562 leukemia) [nM] | TGI (K-562 leukemia) [µM] | GI50 (MCF7 breast) [nM] | TGI (MCF7 breast) [µM] | GI50 (NCI-H522 lung) [nM] | TGI (NCI-H522 lung) [µM] | GI50 (NCI/ADR-RES ovarian) [µM] | TGI (NCI/ADR-RES ovarian) [µM] | GI50 (OVCAR-5 ovarian) [µM] | TGI (OVCAR-5 ovarian) [µM] | GI50 (OVCAR-8 ovarian) [µM] | TGI (OVCAR-8 ovarian) [µM] | GI50 (U251 CNS) [nM] | TGI (U251 CNS) [µM]
1 | CCOC(=O)c1cc2c(n1Cc1cccc(OC)c1)-c1oncc1CC2 | 1940 | 29.6 µM | 470 | 19.9 | 860 | > 100 | 343 | > 100 | 487 | > 100 | 237 | 1.42 | 0.302 | 5.14 | 17.9 | > 100 | 10.3 | > 100 | 909 | > 100
2 | CCCCC1(N=[N+]=[N-])C(=O)c2cccc3c2N(CCC3)C1=O (stereo unspecified) | – | > 100 µM | – | > 100 | – | > 100 | – | > 100 | – | > 100 | – | > 100 | – | > 100 | – | > 100 | – | > 100 | – | > 100
3 | CC(=O)OCC1OC(n2cc(F)c(=O)[nH]c2=O)C(OC(C)=O)C1OC(C)=O (stereo unspecified) | – | > 100 µM | – | 71.8 | – | > 96.5 | – | > 100 | – | > 45.3 | – | > 95.5 | – | > 100 | – | > 100 | – | > 100 | – | > 95.5
4 | CCc1nc(N)nc(N)c1-c1ccc(Cl)cc1 | – | > 100 µM and 25.7 µM | 2850 | > 100 | 26700 | > 100 | – | > 26.5 | 15300 | > 100 | – | > 100 | 5.93 | > 100 | 31.7 | > 100 | – | > 100 | 5650 | > 100
5 | COc1ccc(C(=O)c2cc3c(N)c(C(=O)Nc4cccc(Cl)c4)sc3nc2C)cc1 | 1920 | > 33.3 µM | 1450 | > 33.3 | 2240 | > 33.3 | 1360 | > 33.3 | 1250 | > 33.3 | 1100 | > 33.3 | 1.49 | > 33.3 | 1.69 | > 33.3 | 1.89 | > 33.3 | 1380 | > 33.3
6 | CC(C)Oc1cc(OCC(=O)O)cc(C(=O)N(CCC(N)=O)C(=O)Nc2ccc(C(=O)O)cc2OC(C)C)c1 | > 100000 | > 100 µM | > 100000 | > 100 | > 100000 | > 100 | > 100000 | > 100 | > 100000 | > 100 | > 100000 | > 100 | > 100 | > 100 | > 100 | > 100 | > 100 | > 100 | > 100000 | > 100
7 | CC[C@]1(O)C[C@@H]2CN(Cc3c([nH]c4ccccc34)[C@@](C(=O)OC)(c3cc4c(cc3OC)N(C)[C@H]3[C@@](O)(C(=O)OC)[C@H](OC(C)=O)[C@]5(CC)[C@@H]6C[C@@H]6CN6CC[C@]43[C@@H]65)C2)C1 | 116 | > 4.38 µM | 35.1 | > 4.38 | 153 | > 4.38 | 27.9 | > 4.38 | 18.1 | > 4.38 | 10.5 | 0.0947 | > 4.38 | > 4.38 | 0.144 | > 4.38 | 0.318 | > 4.38 | 112 | > 4.38
8 | COc1ccc(NC(=O)c2ccc(NC3=C(Cl)C(=O)N(Cc4ccccc4)C3=O)cc2)cc1 | 15600 | 31.1 µM | 2360 | 4.89 | 17100 | 32.6 | 4020 | 64.8 | 7900 | > 100 | 3300 | 13.8 | 11.9 | 38.7 | 14.8 | 28.8 | 3.84 | 18.2 | 13300 | 30.5
